Assay results: ChEMBL document CHEMBL5108037, “Cyclic Peptide Screening Methods for Preclinical Drug Discovery” (J Med Chem, 2022)
Values belong to the compound of their own block, whether it stands above or below them. Starred links: 1 amine or outer side, 2 acyl side, 3 side chain; linkers in the order of their positions; H or OH if unused. Positions of bridges follow the written chain, without caps; N, C: chain ends. Non-standard residues stand in square brackets, D forms with d. Residues, ends and D or L forms follow the SMILES beside them. *: point of attachment. X2 = CC1CCN(C[C@H](N[*:1])C(=O)[*:2])CC1; X3 = NC(=O)CNC[C@H](CSCC(=O)[*:1])N[*:2]; X1 = O=C(CN(CC[*:3])[*:1])[*:2]; CH2CH2 = C(C[*:2])[*:1]; Dap = NC[C@H](N)C(=O)O; BrAc = O=C(CBr)*; Mpa = O=C(O)CCS

Legend:
[1] = Inhibition of NDM-1 (unknown origin); parameters: species or system Bacteria
[2] = molecular target: T1, Kelch-like ECH-associated protein 1 (Homo sapiens, UniProt Q14145); experiment: Binding affinity to Keap1 (unknown origin) assessed as dissociation constant by calorimetric analysis
T1 sequence (Q14145 whole entry): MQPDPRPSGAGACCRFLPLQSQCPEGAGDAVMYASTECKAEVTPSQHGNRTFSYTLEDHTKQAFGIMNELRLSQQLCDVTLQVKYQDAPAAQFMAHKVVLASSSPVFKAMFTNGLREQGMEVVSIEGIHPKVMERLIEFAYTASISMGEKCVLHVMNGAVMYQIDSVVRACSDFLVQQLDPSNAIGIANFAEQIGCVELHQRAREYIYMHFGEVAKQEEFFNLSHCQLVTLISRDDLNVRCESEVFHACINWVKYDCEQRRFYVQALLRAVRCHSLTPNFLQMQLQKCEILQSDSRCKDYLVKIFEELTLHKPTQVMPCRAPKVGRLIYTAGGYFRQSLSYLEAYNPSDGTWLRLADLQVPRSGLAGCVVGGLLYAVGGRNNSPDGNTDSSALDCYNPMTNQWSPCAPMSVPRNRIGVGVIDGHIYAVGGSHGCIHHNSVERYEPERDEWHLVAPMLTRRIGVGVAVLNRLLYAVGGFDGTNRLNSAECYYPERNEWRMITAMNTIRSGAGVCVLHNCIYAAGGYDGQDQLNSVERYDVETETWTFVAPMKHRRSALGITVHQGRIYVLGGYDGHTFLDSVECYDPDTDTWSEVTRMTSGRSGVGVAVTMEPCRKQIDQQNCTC

[3] = molecular target: T1, Kelch-like ECH-associated protein 1; experiment: Inhibition of Keap1 (unknown origin) by ELISA analysis
TCF4-CTNNB1 complex = molecular target: T2, TCF4-CTNNB1 complex (Homo sapiens, UniProt P35222); experiment: Binding affinity to FITC-labeled Tcf4 (unknown origin) /6His-tagged beta-catenin (135 to 668 residues) (unknown origin) protein-protein interaction assessed as inhibition constant by fluorescence polarization assay; format: protein-complex assay
T2 sequence (P35222 whole entry): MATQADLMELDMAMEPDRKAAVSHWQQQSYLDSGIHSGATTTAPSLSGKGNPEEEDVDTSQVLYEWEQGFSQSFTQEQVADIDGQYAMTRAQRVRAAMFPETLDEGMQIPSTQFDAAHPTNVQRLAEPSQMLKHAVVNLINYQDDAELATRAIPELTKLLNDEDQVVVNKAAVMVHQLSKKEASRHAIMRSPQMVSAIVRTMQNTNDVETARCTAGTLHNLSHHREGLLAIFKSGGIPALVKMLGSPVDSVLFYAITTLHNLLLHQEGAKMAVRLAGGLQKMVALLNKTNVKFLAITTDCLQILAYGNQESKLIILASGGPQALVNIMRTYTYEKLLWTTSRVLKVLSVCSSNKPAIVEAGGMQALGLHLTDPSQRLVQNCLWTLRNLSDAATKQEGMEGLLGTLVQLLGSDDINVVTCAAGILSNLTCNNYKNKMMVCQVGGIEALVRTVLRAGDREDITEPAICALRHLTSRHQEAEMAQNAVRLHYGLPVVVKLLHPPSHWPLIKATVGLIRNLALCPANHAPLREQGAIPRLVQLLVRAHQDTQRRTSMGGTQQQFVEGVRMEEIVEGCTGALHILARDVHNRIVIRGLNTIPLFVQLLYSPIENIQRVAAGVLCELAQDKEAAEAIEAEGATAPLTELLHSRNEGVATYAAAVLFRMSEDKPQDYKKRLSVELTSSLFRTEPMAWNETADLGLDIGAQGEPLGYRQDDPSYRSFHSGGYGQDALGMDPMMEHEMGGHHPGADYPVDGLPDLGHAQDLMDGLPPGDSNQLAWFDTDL
T2 sequence (P15884 whole entry): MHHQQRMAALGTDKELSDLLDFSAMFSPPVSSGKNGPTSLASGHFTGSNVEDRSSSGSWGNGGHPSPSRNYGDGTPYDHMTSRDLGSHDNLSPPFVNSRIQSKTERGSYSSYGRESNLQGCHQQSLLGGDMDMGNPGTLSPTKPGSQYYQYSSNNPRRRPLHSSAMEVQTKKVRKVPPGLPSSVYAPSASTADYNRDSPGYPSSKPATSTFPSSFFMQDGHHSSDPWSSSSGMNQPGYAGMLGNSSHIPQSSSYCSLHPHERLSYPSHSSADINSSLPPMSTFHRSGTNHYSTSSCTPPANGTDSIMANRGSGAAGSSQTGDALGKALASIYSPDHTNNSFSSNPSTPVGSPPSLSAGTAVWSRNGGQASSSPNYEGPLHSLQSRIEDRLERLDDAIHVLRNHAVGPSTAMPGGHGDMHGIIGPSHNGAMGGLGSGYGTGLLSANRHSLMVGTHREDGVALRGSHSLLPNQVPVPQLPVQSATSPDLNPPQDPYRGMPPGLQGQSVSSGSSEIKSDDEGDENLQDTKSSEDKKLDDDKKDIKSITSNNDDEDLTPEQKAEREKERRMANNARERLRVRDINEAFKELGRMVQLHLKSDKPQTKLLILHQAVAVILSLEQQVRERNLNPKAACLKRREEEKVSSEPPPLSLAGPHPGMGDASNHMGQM

GTPase KRas = GTPase KRas (Homo sapiens, UniProt P01116, G12D); experiment: Inhibition of human His-Avi-TEV-tagged KRAS G12D mutant expressed in Escherichia coli BL21(DE3) by TR-FRET assay
Chain of GTPase KRas (P01116 whole entry G12D): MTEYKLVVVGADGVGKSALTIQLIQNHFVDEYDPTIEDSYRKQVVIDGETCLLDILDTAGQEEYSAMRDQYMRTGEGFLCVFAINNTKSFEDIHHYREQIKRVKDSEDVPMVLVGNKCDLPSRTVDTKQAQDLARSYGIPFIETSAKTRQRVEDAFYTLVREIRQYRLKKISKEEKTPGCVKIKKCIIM

[4] = Inhibition of HIF-1alpha / HIF-1beta (unknown origin) protein-protein interaction by ELISA assay; parameters: species or system Homo sapiens
[5] = Inhibition of recombinant His-tagged HIF-1 expressed in human U2OS cells measured after 90 mins by ELISA assay; format: cell-based
[6] = Antiproliferative activity against human LNCaP-95 cells assessed as cell growth inhibition measured after 24 hrs by CellTiter-Glo assay; format: functional, cell-based; settings: LNCaP-95, 24 h
[7] = Antiproliferative activity against human LNCaP-abl cells assessed as cell growth inhibition measured after 24 hrs by CellTiter-Glo assay; format: functional, cell-based
Sonic hedgehog protein = Sonic hedgehog protein (Homo sapiens, UniProt Q15465); experiment: Binding affinity to SHH (unknown origin) assessed as dissociation constant by calorimetric analysis
Chain of Sonic hedgehog protein (Q15465 24-197 limits assumed): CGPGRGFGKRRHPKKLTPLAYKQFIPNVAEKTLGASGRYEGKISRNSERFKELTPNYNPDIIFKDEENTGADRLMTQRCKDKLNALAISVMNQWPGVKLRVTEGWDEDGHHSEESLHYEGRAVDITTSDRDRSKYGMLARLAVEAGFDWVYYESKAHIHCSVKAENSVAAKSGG

IC50 [1]: 1.2 µM
Structure (SMILES): CC[C@H](C)[C@@H]1NC(=O)[C@@H]2CCCN2C(=O)[C@H](CC(=O)O)NC(=O)[C@H](CCCNC(=N)N)NC(=O)[C@H](CCCNC(=N)N)NC(=O)[C@H](CC(C)C)NC(=O)[C@H](CS)NC(=O)[C@@H]2CCCN2C1=O (cyclo(CLRRDPIP))

Structure (SMILES): C[C@@H](O)[C@@H]1NC(=O)[C@H](CCC(=O)O)NC(=O)[C@H](CO)NC(=O)[C@H](CC(=O)O)NC(=O)[C@@H](N)Cc2ccc(cc2)OCCSC[C@@H](C(=O)O)NC(=O)[C@H](CCC(=O)O)NC(=O)CNC1=O (H-YDSETGEC-OH; linker 1-8 via CH2CH2)
Kd [2]: 0.11 µM
IC50 [3]: 0.0028 µM

IC50 (TCF4-CTNNB1 complex): 4 µM
Structure (SMILES): CC[C@H](C)[C@@H]1NC(=O)[C@H](CNC(=O)CBr)NC(=O)[C@H](CC(=O)O)NC(=O)[C@H](CC(=O)O)NC(=O)CNC(=O)[C@@H]2CCCN2C(=O)[C@H](C)NC(=O)[C@H](CCCNC(=N)N)NC(=O)[C@H]([C@@H](C)O)NC(=O)[C@H](CCC(N)=O)NC(=O)[C@H]([C@@H](C)O)NC(=O)CCSCCN(CC(N)=O)C(=O)[C@H](Cc2ccccc2)NC(=O)[C@H]([C@@H](C)O)NC1=O ([Mpa]TQTRAPGDD[Dap](BrAc)ITF[X1]-NH2; thioether 1-15)

IC50 (GTPase KRas): 0.8 µM
Structure (SMILES): CC1CCN(C[C@@H]2NC(=O)[C@H](CCCNC(=N)N)NC(=O)[C@H](Cc3ccccc3)NC(=O)[C@H](CC(N)=O)NC(=O)[C@H](CCCNC(=N)N)NC(=O)[C@H](Cc3ccccc3)NC(=O)[C@H](CC(N)=O)NC(=O)[C@H](C(C)C)NC(=O)[C@H](Cc3ccccc3)NC(=O)[C@H](Cc3ccc(O)cc3)NC(=O)CSC[C@@H](CNCC(N)=O)NC(=O)[C@H](CCCNC(=N)N)NC(=O)[C@H](Cc3ccccc3)NC2=O)CC1 (YFVNFRNFR[X2]FR; linker N-C via X3)

IC50 [4]: 1.3 µM
IC50 [5]: 19 µM
Structure (SMILES): CC(C)C[C@@H]1NC(=O)[C@H](CS)NC(=O)[C@H](Cc2ccc(O)cc2)NC(=O)[C@H](C(C)C)NC(=O)[C@H](Cc2ccccc2)NC(=O)[C@H](CC(C)C)NC1=O

Structure (SMILES): COc1ccc([C@H](C)N(CC(=O)N(CCCOC(C)C)CC(=O)N(CC(=O)N(CCc2ccccc2Oc2ccccc2)CC(=O)O)c2cc(OC)cc(OC)c2)C(=O)CN(C(=O)[C@@H](C)N)[C@@H](C)c2ccc(OC)cc2)cc1
IC50 [6]: > 20 µM
IC50 [7]: 7.1 µM

Kd (Sonic hedgehog protein): 0.55 µM
Structure (SMILES): CSCC[C@@H]1NC(=O)[C@H](C)NC(=O)[C@H](CCC(=O)O)NC(=O)[C@@H](NC(=O)[C@@H]2CCCN2C(=O)[C@H](CO)NC(=O)[C@H](CO)NC(=O)CN)Cc2ccc(cc2)OCCSC[C@@H](C(=O)N[C@H](C(=O)N[C@@H](CC(=O)O)C(=O)N[C@H](C(=O)NCC(=O)O)[C@@H](C)O)[C@@H](C)O)NC(=O)[C@H](CCSC)NC(=O)[C@H](CC(=O)O)NC1=O (H-GSSPYEAMDMCTDTG-OH; linker 5-11 via CH2CH2)
